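48-hour exposure; five concentrations; linearly interpolated endpoints. Here, GI50 denotes the concentration required for 50% inhibition of growth. TGI denotes the concentration required for complete inhibition of growth.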
Legend:
Assay in all cases: DTP human tumour cell line panel, 48 h
[1] = system: 786-0 renal
[2] = system: A498 renal
[3] = system: A549 NSCLC
[4] = system: ACHN renal
[5] = system: BT-549 breast
[6] = system: CAKI-1 renal
[7] = system: CCRF-CEM leukemia
[8] = system: COLO 205 colon
[9] = system: DU-145 prostate
[10] = system: EKVX NSCLC
[11] = system: HCC-2998 colon
[12] = system: HCT-116 colon
[13] = system: HCT-15 colon
[14] = system: HL-60(TB) leukemia
[15] = system: HOP-62 NSCLC
[16] = system: HOP-92 NSCLC
[17] = system: HS 578T breast
[18] = system: HT29 colon
[19] = system: IGROV1 ovarian
[20] = system: K-562 leukemia
[21] = system: KM12 colon
[22] = system: LOX IMVI melanoma
[23] = system: M14 melanoma
[24] = system: MALME-3M melanoma
[25] = system: MCF7 breast
[26] = system: MDA-MB-231 breast
[27] = system: MDA-MB-435
[28] = system: MDA-MB-468 breast
[29] = system: MOLT-4 leukemia
[30] = system: NCI-H226 lung
[31] = system: NCI-H23 lung
[32] = system: NCI-H460 lung
[33] = system: NCI-H522 lung
[34] = system: NCI/ADR-RES ovarian
[35] = system: OVCAR-3 ovarian
[36] = system: OVCAR-4 ovarian
[37] = system: OVCAR-5 ovarian
[38] = system: OVCAR-8 ovarian
[39] = system: PC-3 prostate
[40] = system: RPMI-8226 leukemia
[41] = system: RXF 393 renal
[42] = system: SF-268 CNS
[43] = system: SF-295 CNS
[44] = system: SF-539 CNS
[45] = system: SK-MEL-2 melanoma
[46] = system: SK-MEL-28 melanoma
[47] = system: SK-MEL-5 melanoma
[48] = system: SK-OV-3 ovarian
[49] = system: SN12C renal
[50] = system: SNB-19 CNS
[51] = system: SNB-75 CNS
[52] = system: SR leukemia
[53] = system: SW-620 colon
[54] = system: T-47D breast
[55] = system: TK-10 renal
[56] = system: U251 CNS
[57] = system: UACC-257 melanoma
[58] = system: UACC-62 melanoma
[59] = system: UO-31 renal

COC(=O)c1c(C(=O)OC)c2n(c1C)[C@@H]([C@@H](C)[C@H]1CC[C@H]3[C@@H]4CCC5=CC(=O)CC[C@]5(C)[C@H]4CC[C@]13C)SC2
GI50 [1]: 11.3 µM | TGI [1]: > 100 µM | GI50 [2]: 17.1 µM | TGI [2]: > 100 µM | GI50 [3]: 4.29 µM | TGI [3]: > 100 µM | GI50 [4]: 3.36 µM | TGI [4]: > 100 µM | GI50 [5]: 1.8 µM | TGI [5]: 4.99 µM | GI50 [6]: 3.93 µM | TGI [6]: > 100 µM | GI50 [7]: 3.41 µM | TGI [7]: > 100 µM | GI50 [8]: 4.94 µM | TGI [8]: > 100 µM | GI50 [9]: 9.83 µM | TGI [9]: > 100 µM | GI50 [10]: 2.34 µM | TGI [10]: > 100 µM | GI50 [11]: 6.47 µM | TGI [11]: > 100 µM | GI50 [12]: 3 µM | TGI [12]: > 100 µM | GI50 [13]: 3.69 µM | TGI [13]: > 100 µM | GI50 [14]: 2.34 µM | TGI [14]: 14 µM | GI50 [15]: 24.3 µM | TGI [15]: > 100 µM | GI50 [16]: 6.99 µM | TGI [16]: 54.4 µM | GI50 [17]: 8.22 µM | TGI [17]: > 100 µM | GI50 [18]: 3.75 µM | TGI [18]: > 100 µM | GI50 [19]: 18.7 µM | TGI [19]: > 100 µM | GI50 [20]: 0.908 µM | TGI [20]: > 100 µM | GI50 [21]: 4.17 µM | TGI [21]: > 100 µM | GI50 [22]: 3.86 µM | TGI [22]: > 100 µM | GI50 [23]: 4.81 µM | TGI [23]: > 100 µM | GI50 [24]: 4.44 µM | TGI [24]: 72.9 µM | GI50 [25]: 2.6 µM | TGI [25]: > 100 µM | GI50 [26]: 9.73 µM | TGI [26]: > 100 µM | GI50 [27]: 3.25 µM | TGI [27]: > 100 µM | GI50 [28]: 1.93 µM | TGI [28]: 16.6 µM | GI50 [29]: 2.02 µM | TGI [29]: 6.34 µM | GI50 [30]: 2.58 µM | TGI [30]: 61.8 µM | GI50 [31]: 3.79 µM | TGI [31]: > 100 µM | GI50 [32]: 5.25 µM | TGI [32]: > 100 µM | GI50 [33]: 2.55 µM | TGI [33]: 53.8 µM | GI50 [34]: 3.13 µM | TGI [34]: > 100 µM | GI50 [35]: 5.08 µM | TGI [35]: > 100 µM | GI50 [36]: 3.05 µM | TGI [36]: > 100 µM | GI50 [37]: 4.67 µM | TGI [37]: > 100 µM | GI50 [38]: 3.32 µM | TGI [38]: > 100 µM | GI50 [39]: 2.31 µM | TGI [39]: > 100 µM | GI50 [40]: 1.56 µM | TGI [40]: > 100 µM | GI50 [41]: 8.82 µM | TGI [41]: 52.4 µM | GI50 [42]: 6.58 µM | TGI [42]: > 100 µM | GI50 [43]: 2.68 µM | TGI [43]: 27.9 µM | GI50 [44]: 7.07 µM | TGI [44]: 84.1 µM | GI50 [45]: 4.02 µM | TGI [45]: > 100 µM | GI50 [46]: 4.34 µM | TGI [46]: > 100 µM | GI50 [47]: 1.53 µM | TGI [47]: 3.68 µM | GI50 [48]: 29.3 µM | TGI [48]: > 100 µM | GI50 [49]: 4.06 µM | TGI [49]: > 100 µM | GI50 [50]: 8.15 µM | TGI [50]: > 100 µM | GI50 [51]: 11.3 µM | TGI [51]: 49.7 µM | GI50 [52]: 3.5 µM | TGI [52]: > 100 µM | GI50 [53]: 7.25 µM | TGI [53]: > 100 µM | GI50 [54]: 2.1 µM | TGI [54]: > 100 µM | GI50 [55]: 6.34 µM | TGI [55]: > 100 µM | GI50 [56]: 4.56 µM | TGI [56]: > 100 µM | GI50 [57]: 3.22 µM | TGI [57]: > 100 µM | GI50 [58]: 2.21 µM | TGI [58]: > 100 µM | GI50 [59]: 2.91 µM | TGI [59]: > 100 µM

From PubChem BioAssay (NCI)
